Test system: epithelial-based cancer cell lines (GDSC)
Test: Cell Line Persistence Curve of cisplatin IC50 in the GDSC dataset, by CisSig score cohort
Conditions: cisplatin concentration approximately 5
From the text: FIG. 11C compares the distribution of IC50 between cohorts of GDSC cell lines in this top and bottom quintile of CisSig score. We are terming this plot a “Cell Line Persistence Curve”, which resembles a Kaplan-Meier survival curve, but uses IC50 in place of survival time for cell lines. […] For example, when cisplatin concentration reaches approximately 5 approximately 50% of the resistant cohort remains with a greater IC50, while only 20% of the sensitive cohort remains with a greater IC50. In other words, cell lines predicted to be resistant tend to have greater IC50 values and cell lines predicted to be sensitive tend to have lower IC50 values.
The drug response data in the GDSC database was last updated 27 Mar. 2018; this version is referred to as “GDSC2.” Cisplatin drug concentration is reported in μM. Raw viability data were processed using the R package, gdscIC50, where they were normalized with negative controls (media alone) and positive controls (media only wells with no cells). Dose-response curves were fit using a multi-level fixed effect model with a classic sigmoidal curve shape assumed. This model was fitted using all cell line/drug combinations that were screened instead of fitting separate models to individual drug-response series. […]

N.N.[Cl][Pt][Cl] [cisplatin]
proportion of the cohort remaining with a cisplatin IC50 greater than the cisplatin concentration (resistant cohort (bottom quintile of CisSig score)): approximately 50% | proportion of the cohort remaining with a cisplatin IC50 greater than the cisplatin concentration (sensitive cohort (top quintile of CisSig score)): 20%

— patent publication US20220235421A1, “DETECTING AND TREATING CISPLATIN SENSITIVE CANCER” (The Cleveland Clinic Foundation, priority 2021, published 2022)
